US5958935A, “Substituted 2-anilinopyrimidines useful as protein kinase inhibitors” (Celltech Therapeutics Limited, priority 1995, dated 1999)

What was measured:
Type in all cases: biochemical
remaining kinases = test: Selectivity over the remaining kinases described (p56^lck, p59^fyn, EGFr, ZAP-70, Csk, protein kinase C assays)
Method: (§1) All assays were performed in 20 mM HEPES pH 7.5 containing 10 mM MgCl2, 10 mM MnCl2, 0.05% Brij, 1 μM ATP (0.5 μCi[γ-^33 P]ATP) and 0.8 mg/ml RR-src. […] After incubation at 30° C. for 15 min, the reaction was terminated by the addition of one-third volume of stop reagent (0.25 mM EDTA and 33 mM ATP in dH2 O). A 15 μl aliquot was removed, spotted onto a P-30 filtermat (Wallac, Milton Keynes, UK), and washed sequentially with 1% acetic acid and dH2 O to remove ATP. The bound ^33 P-RR-src was quantitated by scintillation counting of the filtermat in a Betaplate scintillation counter (Wallac, Milton Keynes, UK) after addition of Meltilex scintillant (Wallac, Milton Keynes, UK). The dpm obtained, being directly proportional to the amount of ^33 P-RR-src produced by p56^lck, were used to determine the IC50 for each compound.
IC50 values for each test inhibitor were determined as described previously in the p56^lck assay.
(§2) The tyrosine kinase activity of ZAP-70 was determined using a capture assay based on that employed above for p56^lck. The RR-src peptide was replaced with polyGlu-Tyr (Sigma; Poole, UK) at a final concentration of 17 μg/ml. After addition of the stopped reaction to the filtermat, trichloroacetic acid 10% (w/v) was employed as the wash reagent instead of acetic acid and a final wash in absolute ethanol was also performed before scintillation counting. IC50 values for each test inhibitor were determined as described above in the p56^lck assay.
(§3) Inhibitor activity against protein kinase C (PKC) was determined using PKC obtained from Sigma Chemical Company (Poole, UK) and a commercially available assay system (Amersham International plc, Little Chalfont, UK). Briefly, PKC catalyses the transfer of the γ-phosphate (^32 p) of ATP to the threonine group on a peptide specific for PKC.
Phosphorylated peptide is bound to phosphocellulose paper, subsequently quantified by scintillation counting and IC50 values determined as before.

protein kinase C (PKC) = test: Protein kinase C assay; conditions: for activity in the protein kinase C assay: in words
Method: as §3, with “PKC. Phosphorylated peptide is bound to phosphocellulose paper, subsequently quantified by scintillation counting and IC50 values determined as before.” for “PKC.”

ZAP-70 = molecular target: T1, ZAP-70 (Homo sapiens, UniProt P43403); test: ZAP-70 kinase assay; conditions: polyGlu-Tyr 17 μg/ml
T1 sequence (P43403 1-619): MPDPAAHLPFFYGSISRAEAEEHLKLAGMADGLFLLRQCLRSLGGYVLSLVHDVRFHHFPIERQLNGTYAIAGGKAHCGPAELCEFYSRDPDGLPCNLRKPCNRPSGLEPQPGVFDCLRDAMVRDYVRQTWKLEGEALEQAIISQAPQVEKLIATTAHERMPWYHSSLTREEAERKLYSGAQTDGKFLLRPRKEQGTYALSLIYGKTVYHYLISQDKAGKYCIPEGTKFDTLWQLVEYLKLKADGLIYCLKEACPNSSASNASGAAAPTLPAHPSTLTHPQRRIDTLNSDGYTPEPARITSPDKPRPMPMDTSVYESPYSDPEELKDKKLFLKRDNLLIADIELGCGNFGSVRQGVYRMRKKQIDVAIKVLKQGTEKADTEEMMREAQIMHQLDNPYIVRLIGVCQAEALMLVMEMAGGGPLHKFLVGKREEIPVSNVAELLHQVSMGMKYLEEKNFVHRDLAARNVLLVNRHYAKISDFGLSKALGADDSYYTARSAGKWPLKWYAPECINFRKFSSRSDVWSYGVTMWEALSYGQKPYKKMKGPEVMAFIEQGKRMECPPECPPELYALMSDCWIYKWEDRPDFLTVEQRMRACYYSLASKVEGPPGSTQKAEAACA
Method: as §2

human p59^fyn = test: p59^fyn kinase assay; conditions: in words
Method: Compounds of the invention were assayed for p59^fyn inhibitory activity in a similar manner to the p56^lck assay, using human p59^fyn.

human p56^lck = human p56^lck (Homo sapiens, UniProt P06239); test: p56^lck kinase assay; conditions: 1 μM ATP, RR-src, pH 7.5, 30° C., 15 min
human p56^lck, sequence (P06239 whole entry): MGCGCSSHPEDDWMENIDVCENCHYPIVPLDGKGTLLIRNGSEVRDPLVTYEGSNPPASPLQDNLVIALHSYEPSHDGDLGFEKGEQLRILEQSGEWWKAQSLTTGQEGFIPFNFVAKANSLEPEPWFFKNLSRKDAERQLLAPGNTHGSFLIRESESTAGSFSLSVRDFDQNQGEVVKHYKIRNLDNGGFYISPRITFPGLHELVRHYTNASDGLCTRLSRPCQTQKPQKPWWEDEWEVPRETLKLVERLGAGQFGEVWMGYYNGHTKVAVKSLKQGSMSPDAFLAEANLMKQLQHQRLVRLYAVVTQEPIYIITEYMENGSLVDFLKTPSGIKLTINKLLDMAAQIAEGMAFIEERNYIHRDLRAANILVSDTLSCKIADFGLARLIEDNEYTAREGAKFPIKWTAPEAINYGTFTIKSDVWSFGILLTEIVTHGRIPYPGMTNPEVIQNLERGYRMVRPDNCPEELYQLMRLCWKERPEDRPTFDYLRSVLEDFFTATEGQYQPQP
Method: The tyrosine kinase activity of p56^lck was determined using a RR-src peptide (RRLIEDNEYTARG) and [γ-^33 P]ATP as substrates. Quantitation of the ^33 P-phosphorylated peptide formed by the action of p56^lck was achieved using an adaption of the method of Geissler et al (J. Biol. Chem. (1990) 265, 22255-22261).
as §1

[1] = relative to protein kinase C, remaining = other than protein kinase C
[2] = relative to ZAP-70, remaining = other than ZAP-70 and protein kinase C
[3] = relative to p56^lck, remaining = other than p56^lck and p59^fyn

**Q.** `COc1cc(Nc2nccc(-c3cccc(OCCCN)c3)n2)cc(OC)c1OC.Cl.Cl` [Example 48, 4-(3-(3-Aminopropoxy)phenyl)-N-(3,4,5-trimethoxyphenyl)-2-pyrimidineamine dihydrochloride] was tested. Which “IC50 values at least 10× greater against the remaining kinases” value (from here on “IC50 values … against the remaining kinases”) (remaining kinases; [1]) did it give?
**A.** The value was “at least 10 ×”.

**Q.** What about the IC50 (protein kinase C (PKC)) of the same compound?
**A.** Its IC50 is 22 nM.

**Q.** Which “IC50 values … against the remaining kinases” value (remaining kinases; [2]) does the source give for `COc1cc(Nc2nccc(-c3ccc(NCCN)nc3)n2)cc(OC)c1OC` [Example 64, 4-(2-(2-Aminoethylamino)pyridin-5-yl)-N-(3,4,5-trimethoxyphenyl)-2-pyrimidineamine] here?
**A.** Its value is “at least 10 ×”.

**Q.** What about the “activity in the protein kinase C assay” value (protein kinase C (PKC)) of the same compound?
**A.** The value was “active”.

**Q.** What about the IC50 (ZAP-70) of the same compound?
**A.** The IC50 was 124 nM.

**Q.** For `COc1cc(Nc2nccc(-c3ccc(NCCCN)nc3)n2)cc(OC)c1OC` [Example 66, 4-(2-(3-Aminopropylamino)pyridin-5-yl)-N-(3,4,5-trimethoxyphenyl)-2-pyrimidineamine], which “IC50 values … against the remaining kinases” value (remaining kinases; [2]) is on record?
**A.** The value was “at least 10 ×”.

**Q.** And the “activity in the protein kinase C assay” value (protein kinase C (PKC))?
**A.** Its value is “active”.

**Q.** And the IC50 (ZAP-70)?
**A.** The IC50 was 68 nM.

**Q.** What does the source list for `COc1cc(Nc2nccc(-c3ccc(NCCC4CCCN4C)nc3)n2)cc(OC)c1OC` (stereo not shown) [Example 81, 4-(2-(2-(1-Methylpyrrolidin-2-yl)ethylamino)pyridin-5-yl)-N-(3,4,5-trimethoxyphenyl)-2-pyrimidineamine]?
**A.** IC50 values at least 10× greater against the remaining kinases (remaining kinases; [1]): at least 10 ×; IC50 (protein kinase C (PKC)): 92 nM

**Q.** What does the source list for `COc1ccc(Nc2ccnc(Nc3cc(OC)c(OC)c(OC)c3)n2)cc1OC` [Example 96, N4-(3,4-Dimethoxyphenyl)-N2-(3,4,5-trimethoxyphenyl)-2,4-pyrimidinediamine]?
**A.** IC50 values at least 10× greater against the remaining kinases (remaining kinases; [3]): at least 10 ×; activity against p59^fyn (human p59^fyn): active; IC50 (human p56^lck): 215 nM

**Q.** `CCOC(=O)Cc1ccc(Nc2ccnc(Nc3cc(OC)c(OC)c(OC)c3)n2)cc1` [Example 103, N4-(4-(Ethoxycarbonylmethyl)phenyl)-N2-(3,4,5-trimethoxyphenyl)-2,4-pyrimidinediamine] was tested. Which “IC50 values … against the remaining kinases” value (remaining kinases; [3]) did it give?
**A.** Its value is “at least 10 ×”.

**Q.** And the “activity against p59^fyn” value (human p59^fyn)?
**A.** The value was “active”.

**Q.** And the IC50 (human p56^lck)?
**A.** Its IC50 is 40 nM.
